Results from article PMC4076210, “Discovery of Novel AKT Inhibitors with Enhanced Anti-Tumor Effects in Combination with the MEK Inhibitor” (PLoS ONE, 2014).
Like-named read-outs stand apart in the source and are kept apart here.

Experiments:
ACK1(h) = molecular target: T1, ACK1(h) (Homo sapiens, UniProt Q07912); test: Kinase panel; type: biochemical
T1 construct: purchased Millipore KinaseProfiler

CDK6/cyclinD3(h) = molecular target: T2, CDK6/cyclinD3(h) (Homo sapiens, UniProt Q00534); test: Kinase panel; type: biochemical
T2 construct: purchased Millipore KinaseProfiler

eEF-2K(h) = molecular target: T3, eEF-2K(h) (Homo sapiens, UniProt O00418); test: Kinase panel; type: biochemical
T3 construct: purchased Millipore KinaseProfiler

FAK(h) = molecular target: T4, FAK(h) (Homo sapiens, UniProt Q05397); test: Kinase panel; type: biochemical
T4 construct: purchased Millipore KinaseProfiler

MKK6(h) = molecular target: T5, MKK6(h) (Homo sapiens, UniProt P52564); test: Kinase panel; type: biochemical
T5 construct: purchased Millipore KinaseProfiler
T5 sequence (P52564 1-334): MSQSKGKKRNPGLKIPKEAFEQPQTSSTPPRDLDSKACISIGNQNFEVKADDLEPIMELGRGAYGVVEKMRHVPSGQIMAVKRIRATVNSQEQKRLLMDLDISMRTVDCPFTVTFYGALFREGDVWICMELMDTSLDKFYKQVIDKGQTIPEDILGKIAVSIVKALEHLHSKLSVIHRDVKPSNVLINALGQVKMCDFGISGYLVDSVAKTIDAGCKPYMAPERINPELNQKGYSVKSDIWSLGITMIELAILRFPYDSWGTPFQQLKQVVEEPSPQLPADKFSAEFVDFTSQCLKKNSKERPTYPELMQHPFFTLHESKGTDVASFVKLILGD

MST2(h) = molecular target: T6, MST2(h) (Homo sapiens, UniProt Q13188); test: Kinase panel; type: biochemical
T6 construct: purchased Millipore KinaseProfiler
T6 sequence (Q13188 1-491): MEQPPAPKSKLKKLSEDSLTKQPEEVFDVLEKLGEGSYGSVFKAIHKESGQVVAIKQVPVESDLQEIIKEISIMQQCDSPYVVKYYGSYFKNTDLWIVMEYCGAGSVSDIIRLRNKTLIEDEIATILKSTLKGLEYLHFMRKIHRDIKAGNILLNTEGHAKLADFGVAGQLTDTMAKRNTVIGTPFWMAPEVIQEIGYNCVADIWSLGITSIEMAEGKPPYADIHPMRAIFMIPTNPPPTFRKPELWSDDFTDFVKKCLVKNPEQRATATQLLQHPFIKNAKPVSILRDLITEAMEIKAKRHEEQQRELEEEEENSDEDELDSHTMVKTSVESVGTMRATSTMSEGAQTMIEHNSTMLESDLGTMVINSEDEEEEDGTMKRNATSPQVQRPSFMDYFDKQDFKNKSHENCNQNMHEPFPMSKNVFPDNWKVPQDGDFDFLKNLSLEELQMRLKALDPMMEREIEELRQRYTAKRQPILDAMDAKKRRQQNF

NEK6(h) = molecular target: T7, NEK6(h) (Homo sapiens, UniProt Q9HC98); test: Kinase panel; type: biochemical
T7 construct: purchased Millipore KinaseProfiler

PDGFRα(V561D)(h) = molecular target: T8, PDGFRα(V561D)(h) (Homo sapiens, UniProt P16234, V561D); test: Kinase panel; type: biochemical
T8 construct: purchased Millipore KinaseProfiler

Tie2(R849W)(h) = molecular target: T9, Tie2(R849W)(h) (Homo sapiens, UniProt Q02763, R849W); test: Kinase panel; type: biochemical
T9 construct: purchased Millipore KinaseProfiler

Tie2(Y897S)(h) = molecular target: T10, Tie2(Y897S)(h) (Homo sapiens, UniProt Q02763, Y897S); test: Kinase panel; type: biochemical
T10 construct: purchased Millipore KinaseProfiler

TLK2(h) = molecular target: T11, TLK2(h) (Homo sapiens, UniProt Q86UE8); test: Kinase panel; type: biochemical
T11 construct: purchased Millipore KinaseProfiler

Yes(h) = molecular target: T12, Yes(h) (Homo sapiens, UniProt P07947); test: Kinase panel; type: biochemical
T12 construct: purchased Millipore KinaseProfiler

ZAP-70(h) = molecular target: T13, ZAP-70(h) (Homo sapiens, UniProt P43403); test: Kinase panel; type: biochemical
T13 construct: purchased Millipore KinaseProfiler
T13 sequence (P43403 1-619): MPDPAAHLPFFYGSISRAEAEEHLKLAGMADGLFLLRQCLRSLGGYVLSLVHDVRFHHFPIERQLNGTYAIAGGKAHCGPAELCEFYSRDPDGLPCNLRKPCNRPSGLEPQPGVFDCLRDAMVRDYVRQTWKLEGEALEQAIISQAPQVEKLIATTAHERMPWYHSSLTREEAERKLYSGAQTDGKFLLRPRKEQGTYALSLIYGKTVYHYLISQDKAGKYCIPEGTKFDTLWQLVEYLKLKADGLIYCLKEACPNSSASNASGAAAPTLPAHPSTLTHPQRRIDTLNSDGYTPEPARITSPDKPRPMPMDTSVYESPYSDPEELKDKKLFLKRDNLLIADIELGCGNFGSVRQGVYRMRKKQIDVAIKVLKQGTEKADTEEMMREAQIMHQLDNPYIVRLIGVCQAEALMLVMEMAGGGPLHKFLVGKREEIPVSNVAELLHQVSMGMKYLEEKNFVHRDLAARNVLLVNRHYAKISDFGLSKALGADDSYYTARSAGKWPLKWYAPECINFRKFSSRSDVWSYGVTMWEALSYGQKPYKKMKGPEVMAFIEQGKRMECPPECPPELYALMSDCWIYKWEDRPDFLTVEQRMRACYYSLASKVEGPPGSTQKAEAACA

pPRAS40 in BT474 = test: phospho-PRAS40 ELISA; type: cell-based; conditions: Homo sapiens, BT-474; BT474, mean ± std dev
Method: (§1) ELISA plates were prepared by coating with anti-GSK3β antibody (R&D Systems), and blocked with 5% Milk/0.1% Tween-20. Cells were seeded at 25,000 cells/96-well overnight and treated with DMSO or various concentrations of drug for 1 h. Cells were lysed in 20 mM Tris-HCl (pH 8.0), 137 mM NaCl, 2 mM EDTA, 10% glycerol and 1% Triton X-100 and lysates transferred to ELISA plates and incubated overnight. The plates were washed and incubated with rabbit anti-phospho-GSK3β (Ser9) antibody (R&D Systems) for 1 h. After washing, plates were developed using HRP-linked anti-rabbit IgG, and 3,3′,5,5′-tetramethylbenzidine as substrate. Absorption was measured in a microplate spectrophotometer at 450 nm. The phospho-PRAS40 ELISA followed similar methodology as above with the exception of using a commercially available PRAS40 (pThr246) kit (Biosource) and following manufacturers' instructions for the ELISA analysis.

pPRAS40 in LNCaP = test: phospho-PRAS40 ELISA; type: cell-based; conditions: Homo sapiens, mean ± std dev
Method: as §1

T12 sequence (P07947 whole entry): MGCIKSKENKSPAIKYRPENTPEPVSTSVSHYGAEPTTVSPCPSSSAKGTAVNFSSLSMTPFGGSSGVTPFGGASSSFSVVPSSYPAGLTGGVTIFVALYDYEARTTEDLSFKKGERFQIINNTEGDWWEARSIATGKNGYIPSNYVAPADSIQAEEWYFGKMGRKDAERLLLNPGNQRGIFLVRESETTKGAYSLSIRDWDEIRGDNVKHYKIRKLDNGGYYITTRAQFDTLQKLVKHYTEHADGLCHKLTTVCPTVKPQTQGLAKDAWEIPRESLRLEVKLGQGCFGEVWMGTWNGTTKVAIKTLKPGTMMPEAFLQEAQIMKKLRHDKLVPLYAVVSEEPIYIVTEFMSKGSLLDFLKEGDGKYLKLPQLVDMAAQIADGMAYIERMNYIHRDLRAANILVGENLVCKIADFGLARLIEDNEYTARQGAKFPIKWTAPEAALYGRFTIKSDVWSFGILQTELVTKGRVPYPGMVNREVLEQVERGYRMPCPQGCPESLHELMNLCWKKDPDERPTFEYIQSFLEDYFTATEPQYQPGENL
T9 sequence (Q02763 23-1124 R849W): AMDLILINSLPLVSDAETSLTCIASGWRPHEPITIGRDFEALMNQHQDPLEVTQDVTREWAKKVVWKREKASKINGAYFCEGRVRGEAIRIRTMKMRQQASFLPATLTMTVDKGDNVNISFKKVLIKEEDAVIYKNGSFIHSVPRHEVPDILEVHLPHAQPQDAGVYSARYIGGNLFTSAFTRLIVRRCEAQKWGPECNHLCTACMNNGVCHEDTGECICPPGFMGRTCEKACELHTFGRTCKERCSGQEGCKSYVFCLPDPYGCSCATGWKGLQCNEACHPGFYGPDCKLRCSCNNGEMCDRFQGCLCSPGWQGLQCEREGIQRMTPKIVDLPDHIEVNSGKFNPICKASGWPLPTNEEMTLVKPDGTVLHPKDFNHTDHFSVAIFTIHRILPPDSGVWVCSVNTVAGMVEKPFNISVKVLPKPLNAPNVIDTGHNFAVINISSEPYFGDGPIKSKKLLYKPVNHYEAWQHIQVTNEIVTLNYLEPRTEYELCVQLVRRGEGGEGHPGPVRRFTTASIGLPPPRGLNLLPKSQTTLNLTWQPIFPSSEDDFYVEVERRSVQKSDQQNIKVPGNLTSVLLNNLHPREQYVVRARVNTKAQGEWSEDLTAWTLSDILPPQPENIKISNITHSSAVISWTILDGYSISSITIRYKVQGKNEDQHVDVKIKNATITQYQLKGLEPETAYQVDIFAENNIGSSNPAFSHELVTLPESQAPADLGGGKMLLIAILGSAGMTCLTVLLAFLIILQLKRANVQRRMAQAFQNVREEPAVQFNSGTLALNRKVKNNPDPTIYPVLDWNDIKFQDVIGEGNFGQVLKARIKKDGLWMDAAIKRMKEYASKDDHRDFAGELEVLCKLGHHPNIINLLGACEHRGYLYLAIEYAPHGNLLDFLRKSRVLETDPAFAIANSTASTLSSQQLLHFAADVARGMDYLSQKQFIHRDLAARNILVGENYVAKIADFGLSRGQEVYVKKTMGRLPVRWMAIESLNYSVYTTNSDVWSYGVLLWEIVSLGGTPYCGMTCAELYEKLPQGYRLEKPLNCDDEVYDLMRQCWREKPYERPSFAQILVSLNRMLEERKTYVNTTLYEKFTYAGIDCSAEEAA
T10 sequence (Q02763 23-1124 Y897S): as the sequence (Q02763 23-1124 R849W) above, with W827R, Y875S counted along it
T8 sequence (P16234 24-1089 V561D): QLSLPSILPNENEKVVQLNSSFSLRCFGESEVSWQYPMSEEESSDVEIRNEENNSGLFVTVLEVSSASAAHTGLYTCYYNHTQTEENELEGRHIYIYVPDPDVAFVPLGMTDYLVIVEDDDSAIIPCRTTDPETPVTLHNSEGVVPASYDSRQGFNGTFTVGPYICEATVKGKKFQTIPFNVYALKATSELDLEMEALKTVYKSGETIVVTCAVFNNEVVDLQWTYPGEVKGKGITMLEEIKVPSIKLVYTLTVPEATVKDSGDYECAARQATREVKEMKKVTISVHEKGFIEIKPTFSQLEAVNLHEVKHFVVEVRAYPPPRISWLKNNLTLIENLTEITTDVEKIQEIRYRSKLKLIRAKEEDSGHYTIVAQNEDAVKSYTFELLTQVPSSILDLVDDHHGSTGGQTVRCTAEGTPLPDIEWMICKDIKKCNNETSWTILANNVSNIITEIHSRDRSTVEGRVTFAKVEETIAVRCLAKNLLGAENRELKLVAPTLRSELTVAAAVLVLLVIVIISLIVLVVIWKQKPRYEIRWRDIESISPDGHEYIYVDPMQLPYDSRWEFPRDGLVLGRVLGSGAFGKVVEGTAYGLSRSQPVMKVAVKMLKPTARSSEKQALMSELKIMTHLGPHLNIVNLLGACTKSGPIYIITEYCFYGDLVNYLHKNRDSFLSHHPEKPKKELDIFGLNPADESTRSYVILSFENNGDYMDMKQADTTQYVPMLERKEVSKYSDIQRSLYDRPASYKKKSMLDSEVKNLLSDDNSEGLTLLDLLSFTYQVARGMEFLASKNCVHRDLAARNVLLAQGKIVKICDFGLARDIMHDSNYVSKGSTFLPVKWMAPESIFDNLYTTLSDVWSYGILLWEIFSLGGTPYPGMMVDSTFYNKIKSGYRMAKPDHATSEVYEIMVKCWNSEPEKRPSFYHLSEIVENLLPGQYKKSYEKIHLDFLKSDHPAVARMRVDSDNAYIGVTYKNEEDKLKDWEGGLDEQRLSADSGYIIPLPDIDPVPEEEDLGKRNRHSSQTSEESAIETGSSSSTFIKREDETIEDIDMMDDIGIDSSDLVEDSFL
T11 sequence (Q86UE8 whole entry): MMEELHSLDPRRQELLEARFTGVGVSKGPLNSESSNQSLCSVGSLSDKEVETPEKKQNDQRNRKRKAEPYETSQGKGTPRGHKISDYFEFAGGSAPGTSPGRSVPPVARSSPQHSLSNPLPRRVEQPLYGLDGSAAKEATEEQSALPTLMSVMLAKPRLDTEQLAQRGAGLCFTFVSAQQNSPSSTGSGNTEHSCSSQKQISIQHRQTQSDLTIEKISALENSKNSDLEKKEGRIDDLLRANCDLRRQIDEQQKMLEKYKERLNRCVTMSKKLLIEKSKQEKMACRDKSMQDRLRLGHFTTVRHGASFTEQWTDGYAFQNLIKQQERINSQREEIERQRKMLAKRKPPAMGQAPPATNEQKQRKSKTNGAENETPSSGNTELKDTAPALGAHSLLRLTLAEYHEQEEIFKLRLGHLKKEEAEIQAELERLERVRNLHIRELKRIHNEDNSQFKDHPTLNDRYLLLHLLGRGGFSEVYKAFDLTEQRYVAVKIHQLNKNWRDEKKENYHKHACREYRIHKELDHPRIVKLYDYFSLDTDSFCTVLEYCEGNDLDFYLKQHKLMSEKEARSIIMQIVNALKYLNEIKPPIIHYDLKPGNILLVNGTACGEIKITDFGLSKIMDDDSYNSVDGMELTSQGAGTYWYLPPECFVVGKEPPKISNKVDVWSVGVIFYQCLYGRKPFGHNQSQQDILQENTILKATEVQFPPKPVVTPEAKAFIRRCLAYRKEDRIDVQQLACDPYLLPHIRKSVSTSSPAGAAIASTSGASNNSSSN
T4 sequence (Q05397 whole entry): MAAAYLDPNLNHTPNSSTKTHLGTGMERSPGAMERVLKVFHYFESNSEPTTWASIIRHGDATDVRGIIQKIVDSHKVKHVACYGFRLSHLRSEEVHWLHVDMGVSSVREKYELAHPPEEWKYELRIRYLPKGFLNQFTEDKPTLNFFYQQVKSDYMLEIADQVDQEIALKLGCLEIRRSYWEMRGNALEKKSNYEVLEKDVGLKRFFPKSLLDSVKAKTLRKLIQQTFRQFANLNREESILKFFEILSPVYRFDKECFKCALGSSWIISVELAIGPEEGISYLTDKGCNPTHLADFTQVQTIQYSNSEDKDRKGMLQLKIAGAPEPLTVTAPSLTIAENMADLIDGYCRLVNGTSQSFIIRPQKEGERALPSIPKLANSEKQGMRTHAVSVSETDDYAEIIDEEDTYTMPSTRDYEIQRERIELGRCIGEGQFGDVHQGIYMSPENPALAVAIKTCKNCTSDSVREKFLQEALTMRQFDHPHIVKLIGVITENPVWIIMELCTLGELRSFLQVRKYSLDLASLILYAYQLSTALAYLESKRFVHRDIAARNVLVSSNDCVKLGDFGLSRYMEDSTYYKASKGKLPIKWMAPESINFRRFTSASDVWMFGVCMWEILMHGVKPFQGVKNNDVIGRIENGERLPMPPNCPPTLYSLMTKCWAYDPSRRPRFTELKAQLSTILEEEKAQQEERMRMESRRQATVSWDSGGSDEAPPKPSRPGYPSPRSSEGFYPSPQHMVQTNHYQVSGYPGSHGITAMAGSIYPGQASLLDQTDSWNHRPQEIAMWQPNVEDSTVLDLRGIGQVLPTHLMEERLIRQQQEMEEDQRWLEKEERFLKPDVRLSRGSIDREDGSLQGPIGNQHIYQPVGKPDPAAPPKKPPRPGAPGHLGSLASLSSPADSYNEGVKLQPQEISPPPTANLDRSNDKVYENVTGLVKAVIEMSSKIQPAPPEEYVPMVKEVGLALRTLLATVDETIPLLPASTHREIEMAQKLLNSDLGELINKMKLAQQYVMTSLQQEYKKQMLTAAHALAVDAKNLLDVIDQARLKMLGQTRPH
T7 sequence (Q9HC98 whole entry): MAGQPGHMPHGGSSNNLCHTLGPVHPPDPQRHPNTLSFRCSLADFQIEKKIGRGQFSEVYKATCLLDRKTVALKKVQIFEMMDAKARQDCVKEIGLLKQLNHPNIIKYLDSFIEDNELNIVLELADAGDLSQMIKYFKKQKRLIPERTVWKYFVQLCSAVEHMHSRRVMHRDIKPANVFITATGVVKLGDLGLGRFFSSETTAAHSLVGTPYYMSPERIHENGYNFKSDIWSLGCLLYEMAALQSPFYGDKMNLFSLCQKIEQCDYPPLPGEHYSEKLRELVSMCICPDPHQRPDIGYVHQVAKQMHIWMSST

`Cn1ncc(Cl)c1-c1cc(C(=O)N[C@H](CN)Cc2ccc(F)c(F)c2)oc1Cl` [GSK2141795] gave an inhibition at 0.5 µM (ACK1(h); 0.5 µM, read-out: % Inhibition) of -2%, an inhibition at 10 µM (ACK1(h); 10 µM, read-out: % Inhibition) of 0% and an inhibition at 0.5 µM (CDK6/cyclinD3(h); 0.5 µM, read-out: % Inhibition) of -12%. The inhibition at 10 µM (CDK6/cyclinD3(h); 10 µM, read-out: % Inhibition) was -12%, the inhibition at 0.5 µM (eEF-2K(h); 0.5 µM, read-out: % Inhibition) was 4% and the inhibition at 10 µM (eEF-2K(h); 10 µM, read-out: % Inhibition) was 3%. The inhibition at 0.5 µM (FAK(h); 0.5 µM, read-out: % Inhibition) was -3%, the inhibition at 10 µM (FAK(h); 10 µM, read-out: % Inhibition) was 5% and the inhibition at 0.5 µM (MKK6(h); 0.5 µM, read-out: % Inhibition) was 14%. It also gave an inhibition at 10 µM (MKK6(h); 10 µM, read-out: % Inhibition) of 66%, an inhibition at 0.5 µM (MST2(h); 0.5 µM, read-out: % Inhibition) of -2% and an inhibition at 10 µM (MST2(h); 10 µM, read-out: % Inhibition) of 4%. The inhibition at 0.5 µM (NEK6(h); 0.5 µM, read-out: % Inhibition) was -17%, the inhibition at 10 µM (NEK6(h); 10 µM, read-out: % Inhibition) was -22% and the inhibition at 0.5 µM (PDGFRα(V561D)(h); 0.5 µM, read-out: % Inhibition) was -5%. For the same compound, the inhibition at 10 µM (PDGFRα(V561D)(h); 10 µM, read-out: % Inhibition) was 14%, the inhibition at 0.5 µM (Tie2(R849W)(h); 0.5 µM, read-out: % Inhibition) was -8% and the inhibition at 10 µM (Tie2(R849W)(h); 10 µM, read-out: % Inhibition) was 11%. The inhibition at 0.5 µM (Tie2(Y897S)(h); 0.5 µM, read-out: % Inhibition) was -4%, the inhibition at 10 µM (Tie2(Y897S)(h); 10 µM, read-out: % Inhibition) was 2% and the inhibition at 0.5 µM (TLK2(h); 0.5 µM, read-out: % Inhibition) was -11%. For the same compound, the inhibition at 10 µM (TLK2(h); 10 µM, read-out: % Inhibition) was 10%, the inhibition at 0.5 µM (Yes(h); 0.5 µM, read-out: % Inhibition) was -4% and the inhibition at 10 µM (Yes(h); 10 µM, read-out: % Inhibition) was 83%. It also gave an inhibition at 0.5 µM (ZAP-70(h); 0.5 µM, read-out: % Inhibition) of -23%, an inhibition at 10 µM (ZAP-70(h); 10 µM, read-out: % Inhibition) of -24% and an IC50 (pPRAS40 in BT474) of 39 ± 0.5 nM. It also gave an IC50 (pPRAS40 in LNCaP) of 55 ± 2 nM.

Work on `Cn1ncc(Cl)c1-c1cc(C(=O)N[C@H](CN)Cc2cccc(F)c2)sc1Cl` [GSK2110183] yielded an inhibition at 0.5 µM (ACK1(h)) of 1%, an inhibition at 10 µM (ACK1(h)) of 8% and an inhibition at 0.5 µM (CDK6/cyclinD3(h)) of 0%. It also gave an inhibition at 10 µM (CDK6/cyclinD3(h)) of 5%, an inhibition at 0.5 µM (eEF-2K(h)) of -3% and an inhibition at 10 µM (eEF-2K(h)) of 13%. The inhibition at 0.5 µM (FAK(h)) was 1%, the inhibition at 10 µM (FAK(h)) was 39% and the inhibition at 0.5 µM (MKK6(h)) was 6%. The inhibition at 10 µM (MKK6(h)) was 36%, the inhibition at 0.5 µM (MST2(h)) was -4% and the inhibition at 10 µM (MST2(h)) was -2%. For the same compound, the inhibition at 0.5 µM (NEK6(h)) was -25%, the inhibition at 10 µM (NEK6(h)) was -11% and the inhibition at 0.5 µM (PDGFRα(V561D)(h)) was 2%. It also gave an inhibition at 10 µM (PDGFRα(V561D)(h)) of 26%, an inhibition at 0.5 µM (Tie2(R849W)(h)) of -8% and an inhibition at 10 µM (Tie2(R849W)(h)) of -9%. The inhibition at 0.5 µM (Tie2(Y897S)(h)) was -5%, the inhibition at 10 µM (Tie2(Y897S)(h)) was -4% and the inhibition at 0.5 µM (TLK2(h)) was -2%. It also gave an inhibition at 10 µM (TLK2(h)) of -1%, an inhibition at 0.5 µM (Yes(h)) of 2% and an inhibition at 10 µM (Yes(h)) of 38%. The inhibition at 0.5 µM (ZAP-70(h)) was 8%, the inhibition at 10 µM (ZAP-70(h)) was -2% and the IC50 (pPRAS40 in BT474) was 121 ± 40 nM. For the same compound, the IC50 (pPRAS40 in LNCaP) was 104 ± 5 nM.
